Results taken from article PMC5915280, “Improvement of kynurenine aminotransferase-II inhibitors guided by mimicking sulfate esters” (PLoS ONE, 2018).

Target: T1, KAT-II (kynurenine aminotransferase-II) (Homo sapiens, UniProt Q8N5Z0)
T1 construct: gene AADAT; recombinant KAT-II with a hexa-histidine tag, expressed in E. coli Rosetta 2
Test: HPLC assay of kynurenic acid formation with purified recombinant enzyme
Type: biochemical

T1 sequence (Q8N5Z0 30-425): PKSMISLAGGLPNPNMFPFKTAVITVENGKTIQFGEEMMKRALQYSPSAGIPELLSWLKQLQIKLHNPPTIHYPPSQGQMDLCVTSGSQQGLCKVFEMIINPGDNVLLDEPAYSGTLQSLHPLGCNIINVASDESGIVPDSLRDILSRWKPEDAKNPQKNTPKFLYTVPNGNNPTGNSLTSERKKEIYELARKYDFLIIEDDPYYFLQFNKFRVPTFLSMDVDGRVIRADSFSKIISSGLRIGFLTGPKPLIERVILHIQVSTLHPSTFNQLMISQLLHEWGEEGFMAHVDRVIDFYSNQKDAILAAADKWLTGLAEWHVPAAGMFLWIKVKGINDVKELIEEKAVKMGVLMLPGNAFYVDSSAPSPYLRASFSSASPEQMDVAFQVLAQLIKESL

## NS(=O)(=O)c1ccc(CCN2C(=O)c3cc(Cl)c(Cl)cc3C2=O)cc1 [JN-02, 4-(5,6-dichloro-1,3-dioxo-1,3-dihydro-2H-isoindol-2-yl)ethyl benzenesulfonamide]
  IC50: 113 µM

## NS(=O)(=O)c1ccc(N2C(=O)c3cc(Cl)c(Cl)cc3C2=O)cc1 [JN-01, 4-(5,6-dichloro-1,3-dioxo-1,3-dihydro-2H-isoindol-2-yl)benzenesulfonamide]
  IC50: 73.8 µM
